Reference: patent US8067422B2, “Crystal form of phenylamino pyrimidine derivatives” (Natco Pharma Limited, priority 2008, dated 2011)
“Also recorded” adds a separate entry of the source. Structures can show the parent of a compound that is named as a salt.

How the values were obtained:
[1] = Thermodynamic stability of crystal forms at room temperature; type: physicochemical
Source text: This is indicative of the greater stability of the Form-III crystal form.

[2] = Stability of Form-III crystal form under accelerated stress conditions in bulk and formulated capsule; type: physicochemical
[3] = Heat stability of Form-III crystal form (XRPD after heating); type: physicochemical; conditions: for Polymorph form detected after heating: 6 hours, XRPD
Source text: Pure Form-III crystal form (1 gm) prepared by the present process was placed in a boiling tube and heated gradually in oil bath. Then the substance was examined by XRPD.

K562 cells [4] = assay: Spleenic enlargement and spleen Crk immunocytochemistry in K562 implanted nude mice; type: in vivo; conditions: ip injections
Procedure: Control mice were sacrificed on day 42 when secondary leukemia symptoms were observed, such as abdominal swelling and lack of circulation in the peripherals causing loss of digits with red spots under the skin surface. Spleen and any secondary tumors were harvested, fixed in formaldehyde and paraffin embedded as per standard protocols. Paraffin section were obtained and processed for immunocytochemistry. The rehydrated sections were treated with 0.3% H2O2 to inactivate any native peroxidases prior to immuno-probing. The sections were blocked with filter sterilized (0.22 μm) 1% BSA-PBS at room temperature for 1 h. Following blocking, the sections were immuno-probed with a human specific anti-Crk monoclonal primary antibody raised in rabbit against a synthetic peptide corresponding to residues in the SH2 domain, near the N-term of human CrkL protein (Abcam, Cambridge, Mass., USA) in 1% BSA-PBS overnight. Secondary antibody (anti-rabbit) conjugated to HRP was used to detect the presence of primary antibody. The sections were briefly rinsed three times in PBS solution after immuno-probing with secondary antibody, and DAB HRP substrate was added per manufacture's instructions (Sigma St Louis Mo. USA). The reaction was allowed to proceed until sharp contrast between positive and negative controls was observed. For negative controls primary antibody were eliminated. Leukemic mice spleen served as positive controls.
Mice were sacrificed after a decrease in LGI was observed and spleen harvested. […] Control mice also developed random subcutaneous tumors showing Crk expression, indicative of the presence of K562 cells.

[5] = system: K562 luciferase expressing cells; assay: Leukemic survival study in nude mice implanted with K562 luciferase expressing cells; type: in vivo
Source text: K562 luciferase expressing cells were implanted intraperitoneally into nude mice; the mice were scanned using the xenogeny IVIS image station after ip injections of luciferin does determine implantations. Drug treatment was started as in previous studies day 15 after implantation. The animals were given treatment till day 42, after which drug treatment was stopped and survival of the animals determined as per the animal care regulations. […] Drug treatment was withdrawn on day 42 post implantation and survival of animals determined.

K562 cells [6] = assay: Anti-CML activity in nude mice implanted with K562 cells (leukemia growth index); type: in vivo; conditions: ip injections
Source text: Nude mice (nu/nu) were implanted with K562 cells (1×10^6) via tail vein.
Blood was drawn via the tail vein. Quantitative analysis of LGI was graphically represented.

5310 glioma cells = assay: Matrigel invasion assay (modified Boyden chamber), 5310; type: cell-based
Procedure: (§1) The in vitro invasiveness of 4910, 5310 and U87 glioma cells and MDAMB231 and ZR71 breast cancer cells in the presence of specified concentrations of compounds were assessed using a modified Boyden chamber assay. Cells were treated with these compounds for 48 h. 1×10^6 cells were suspended in 600 μl of serum-free medium supplemented with 0.2% BSA and placed in the upper compartment of the transwell chambers (Corning Costar Fischer Scientific Cat #07-200-158, Pittsburgh Pa.) coated with Matrigel (0.7 mg/ml). The lower compartment of the chamber was filled with 200 μl of serum medium and the cells were allowed to migrate for 24 h. After incubation, the cells were fixed and stained with Hema-3 and quantified as previously described (Mohanam et al. 1993). The migrated cells were imaged microscopically to determine the reduction in invasiveness induced by the compounds of this invention.

[7] = system: MDAMB231 breast cancer cells; assay: Matrigel invasion assay (modified Boyden chamber), MDA-MB-231; type: cell-based
Procedure: as §1

ZR71 breast cancer cells = assay: Matrigel invasion assay (modified Boyden chamber), ZR-71; type: cell-based
Procedure: as §1

U87 glioma cells = assay: Matrigel invasion assay (modified Boyden chamber), U87; type: cell-based
Procedure: as §1

[8] = system: 4910 human glioma xenograft cells; assay: Glioma radiation study, nude mice intracranially implanted with 4910 cells; type: in vivo; conditions: of 10 animals; without radiation; day 40 post implantation
Procedure: Nude mice were intracranially implanted with 4910 human glioma xenograft cells (1×10^6 cells). Ten days after implantation mice were treated with AN019, AN024 or temozolomide with or without radiation (5 Gy/week). The experiment was terminated at day 40 post implantation.

4910 glioma cells = assay: Matrigel invasion assay (modified Boyden chamber), 4910; type: cell-based, human
Procedure: as §1

[9] = drug treatment withdrawn on day 42

SMILES: Cc1ccc(NC(=O)c2cc(C(F)(F)F)cc(C(F)(F)F)c2)cc1Nc1nccc(-c2cccnc2)n1 [Form-I, (3,5-bis trifluoromethyl)-N-[4-methyl-3-(4-pyridin-3yl-pyrimidin-2ylamino)-phenyl]-benzamide]
- Stability of crystal form [1]: metastable

SMILES: Cc1ccc(NC(=O)c2cc(C(F)(F)F)cc(C(F)(F)F)c2)cc1Nc1nccc(-c2cccnc2)n1 [Form-II, (3,5-bis trifluoromethyl)-N-[4-methyl-3-(4-pyridin-3yl-pyrimidin-2ylamino)-phenyl]-benzamide]
- Stability of crystal form [1]: metastable

SMILES: Cc1ccc(NC(=O)c2cc(C(F)(F)F)cc(C(F)(F)F)c2)cc1Nc1nccc(-c2cccnc2)n1 [Form-III, (3,5-bis trifluoromethyl)-N-[4-methyl-3-(4-pyridin-3yl-pyrimidin-2ylamino)-phenyl]-benzamide]
- Stability of crystal form [1]: thermodynamically stable
- Polymorph content of bulk compound of formula I, polymorph form detected ([2]; 0 Month at 40 ± 2° C./75 ± 5% RH): Form-III
- Polymorph content of bulk compound of formula I, polymorph form detected ([2]; 1 Month at 40 ± 2° C./75 ± 5% RH): Form-III
- Polymorph content of bulk compound of formula I, polymorph form detected ([2]; 2 Months at 40 ± 2° C./75 ± 5% RH): Form-III
- Polymorph content of bulk compound of formula I, polymorph form detected ([2]; 3 Months at 40 ± 2° C./75 ± 5% RH): Form-III
- Polymorph content of bulk compound of formula I, polymorph form detected ([2]; 6 Months at 40 ± 2° C./75 ± 5% RH): Form-III
- Polymorph form detected after heating ([3]; 110° C.): Form-III
- Polymorph form detected after heating ([3]; 120° C.): Form-III
- Polymorph form detected after heating ([3]; 130° C.): Form-III
- Heat stability ([3]; heated at 130° C. for 6 hours): non-metastable and stable; also recorded: stable to heat

SMILES: Cc1ccc(NC(=O)c2ccc(CN3CCN(C)CC3)cc2)cc1Nc1nccc(-c2cccnc2)n1 [Imatinib, Imatinib mesylate, reference compound]
- Crk expression in spleen (immunohistochemistry) (K562 cells [4]): few colonies with low to undetectable expression levels of Crk; also recorded: localized expression regions of Crk expression
- Spleenic enlargement (gross observation) (K562 cells [4]): slight spleenic enlargement
- Blast cell count from blood smears, effectiveness after withdrawal of drug treatment [5, 9]: ineffective
- Leukemic symptoms after treatment withdrawal [5, 9]: reoccurrences of leukemic symptoms
- Mortality ([5]; treatment day 15 to day 42, then withdrawn, 10 animals): mortality on day 55, 56, 57 and 58
- Physiological, phenotypic or behavioral abnormality (K562 cells [6]): no abnormal physiological, phenotypic or behavioral abnormality

SMILES: Cn1nnc2c(C(N)=O)ncn2c1=O [Temozolomide]
- ±Change in invasion after radiation (5310 glioma cells; 5310): +13%
- +Radiation % Invasion (5310 glioma cells; 5310, with radiation, 48 h treatment): 63%
- −Radiation % Invasion (5310 glioma cells; 5310, without radiation, 48 h treatment): 50%
- ±Change in invasion after radiation ([7]; MDA-MB-231): −13%
- +Radiation % Invasion ([7]; MDA-MB-231, with radiation, 48 h treatment): 49%
- −Radiation % Invasion ([7]; MDA-MB-231, without radiation, 48 h treatment): 62%
- ±Change in invasion after radiation (ZR71 breast cancer cells; ZR-71): −5%
- +Radiation % Invasion (ZR71 breast cancer cells; ZR-71, with radiation, 48 h treatment): 65%
- −Radiation % Invasion (ZR71 breast cancer cells; ZR-71, without radiation, 48 h treatment): 70%
- ±Change in invasion after radiation (U87 glioma cells; U87): +3%
- +Radiation % Invasion (U87 glioma cells; U87, with radiation, 48 h treatment): 93%
- −Radiation % Invasion (U87 glioma cells; U87, without radiation, 48 h treatment): 90%
- Animals cured / complete absence of intracranial tumours [8]: 3 animals
- ±Change in invasion after radiation (4910 glioma cells; 4910): −22%
- +Radiation % Invasion (4910 glioma cells; 4910, with radiation, 48 h treatment): 73%
- −Radiation % Invasion (4910 glioma cells; 4910, without radiation, 48 h treatment): 95%
